The source of these data is US20250154288A1, “CYTOTOXICITY TARGETING CHIMERAS FOR C-C CHEMOKINE RECEPTOR 2-EXPRESSING CELLS” (GLAXOSMITHKLINE INTELLECTUAL PROPERTY DEVELOPMENT LIMITED, priority 2022, published 2025).

Assay [1] concerns the target human alpha1 nicotinic acetylcholine (nACh) receptor (Homo sapiens, UniProt P02708+Q07001). Put plainly: Nicotinic Acetylcholine Receptor Antagonism Assay (IONFlux automated patch clamp). The class given is cell-based. The conditions noted are these: for IC50: antagonism of nAChR stimulated with acetylcholine, average if several runs; for Emax at 100 µM: maximum percentage antagonism at Maximum Concentration of Compound Tested 100 μM, read-out: Maximum Response (%). Here is the method:
Cells expressing human alpha1 nicotinic acetylcholine (nACh) receptor (nAChR) were washed and dissociated using Trypsin containing buffer. Cells were then washed and seeded at a density of 3-5 million cells/mL and allowed to grow for 3 days. Then, 60-80 μL of cells were added to plates and incubated with dose response of an ARM compound of Formula (I) with a top concentration of either 10 μM or 100 μM. The receptor was then stimulated via addition of acetylcholine (ACh) and activation of the receptor was monitored via the IONFlux automated patch clamp system. IonFlux Data Analyzer software was utilized to perform leak subtraction and measure (min) peak current amplitude.
Data processing: (1) Current values recorded for vehicle only applications in individual traps/patterns were subtracted from corresponding current amplitude values for control, test article and control+test article. (2) Control response was calculated as % of the average response of the 3rd out of total 3 ACh (10 mM) applications alone. In rare situations, if the 3rd ACh response was obscured due to technical artifacts, the 2nd and/or 1st ACh (10 mM) application was considered as control. The peak current amplitude generated in the presence of each test article concentration was then used to calculate the % inhibition as compared to control response (10 mM ACh alone). These estimates were further corrected for vehicle response and run down corrected by normalizing with time matched control responses (10 mM ACh alone). The corrected percentages were then fit with a non-linear function in GraphPad Prism 6 (or later versions) to determine the IC50.
Exclusion criteria: (i) any n's with poor recording quality, (ii) control current amplitude <500 pA or (iii) significant outliers, as determined by the Grubbs' test.
ARMs compounds of Formula (I) of the invention were tested for antagonism of the nAChR in the above assay in […] experimental runs and the results are shown in Table 6 below. Antagonistic activity of the compounds of Formula (I) of the invention is reported as an IC50 value (half maximal inhibitory concentration) and the maximum percentage antagonism observed at the highest concentration of compound of Formula (I) tested, as indicated in Table 6. For compounds tested in more than one experimental run, the IC50 value is reported as an average.
(In general: The patch-clamp technique gives a direct electrical read-out from membranes.)

For assay [2], the target named is Anti-cotinine antibody (SEQ ID NO: 11 / SEQ ID NO: 12). Put plainly: Binding of Anti-Cotinine Antibody to ARM Compounds measured by Surface Plasmon Resonance (SPR). Set-up: species or system rabbit variable region with human IgG1 Fc domain. Particulars: Biacore T200, 37° C., Kd = koff/kon, average if several runs. As for the experimental part:
Anti-cotinine antibodies having a heavy chain sequence of SEQ ID NO: 11 and a light chain sequence of SEQ ID NO: 12 (rabbit variable region with human IgG1 Fc domain containing a DE mutation (S239D/I332E)) were captured on one or more flow cells of a protein A sensor chip (Cytiva) using a Biacore T200 while reserving flow cell 1 as a reference. Following capture, a 3000 second wait step was included to reduce drift during compound analysis. ARM compounds of Formula (I) were then injected at 100 μL/min with 200 and 2000 second association and dissociation times. The entire experiment was run at 37° C. with running buffer containing 10 mM HEPES pH 7.4, 150 mM NaCl, 0.005% P20 and 1% DMSO. ARM compounds of Formula (I) were titrated with a top concentration of 200 nM using a 3-fold 5-point dilution series and a corresponding 5-injection buffer cycle was run for blank subtraction. Data were double referenced by subtracting the response of the reference flow cell from that of the antibody-containing flow cell and subsequently subtracting the referenced blank sensorgrams. Following compound analysis, the surface was regenerated using a 30 second injection of pH 1.5 glycine at a flow rate of 30 μL/min after which antibody was re-captured. The experiment was run using Biacore T200 control software and evaluated using Biacore T200 Evaluation software. Curves were fit with a 1:1 kinetic binding model to obtain kon(1/Ms), koff(1/s), Kd (M) determined as koff/kon, and residence time determined as 1/koff. (s).
Anti-cotinine antibody was tested for binding to ARMs compounds of Formula (I) of the invention in the above assay in or more experimental runs and the results are shown in Table 5 below. Affinity is reported as a pKd value. The pKd value is the negative log of the Kd value, wherein the Kd value is the dissociation constant measured in molar (M) as noted above. For compounds tested in more than one experimental run, the pKd value is reported as an average
Background: SPR reads the build-up and loss of mass on a sensor chip optically.

In assay [3] the target is T1, CHOK1 cells engineered to overexpress human CCR2 (Homo sapiens, UniProt P41597).
T1 construct: expressed in transfected cells; host or cells: CHOK1
Put plainly: Antibody Dependent Cellular Cytotoxicity (ADCC) Reporter Assay. The format is cell-based. The conditions noted are these: with anti-cotinine antibody (human IgG1 Fc, S239D/I332E); Jurkat FcγRIIIa NFAT-luciferase reporter cells; average if several runs; read-out: ADCC Reporter Assay pEC50 (converted). Summed up:
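CHOK1-hCCR2 target cells co-incubated ~12-18 h with compound (1 pM–10 μM), anti-cotinine rabbit/human IgG1 S239D/I332E antibody (0.01–200 μg/mL) and Jurkat FcγRIIIa NFAT-luciferase reporter cells. Luminescence signal:background versus no-compound wells; EC50 from four-parameter fit, reported as pEC50, averaged over runs.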
A general note: In a reporter assay the amount or activity of a reporter protein is the signal.

Chain of human alpha1 nicotinic acetylcholine (nACh) receptor (P02708 21-457): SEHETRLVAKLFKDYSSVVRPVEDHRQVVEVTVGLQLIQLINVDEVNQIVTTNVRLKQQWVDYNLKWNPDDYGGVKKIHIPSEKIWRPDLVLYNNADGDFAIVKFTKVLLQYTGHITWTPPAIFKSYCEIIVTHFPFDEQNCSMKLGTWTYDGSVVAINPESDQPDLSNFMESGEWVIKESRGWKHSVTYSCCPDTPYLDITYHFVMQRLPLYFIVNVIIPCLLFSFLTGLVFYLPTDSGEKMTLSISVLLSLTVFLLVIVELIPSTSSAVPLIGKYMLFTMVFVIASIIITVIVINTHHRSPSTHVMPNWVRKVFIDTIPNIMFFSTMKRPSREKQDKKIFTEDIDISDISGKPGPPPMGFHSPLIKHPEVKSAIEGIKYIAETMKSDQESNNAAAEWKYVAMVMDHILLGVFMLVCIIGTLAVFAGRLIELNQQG
Chain of human alpha1 nicotinic acetylcholine (nACh) receptor (P11230 24-501 partner): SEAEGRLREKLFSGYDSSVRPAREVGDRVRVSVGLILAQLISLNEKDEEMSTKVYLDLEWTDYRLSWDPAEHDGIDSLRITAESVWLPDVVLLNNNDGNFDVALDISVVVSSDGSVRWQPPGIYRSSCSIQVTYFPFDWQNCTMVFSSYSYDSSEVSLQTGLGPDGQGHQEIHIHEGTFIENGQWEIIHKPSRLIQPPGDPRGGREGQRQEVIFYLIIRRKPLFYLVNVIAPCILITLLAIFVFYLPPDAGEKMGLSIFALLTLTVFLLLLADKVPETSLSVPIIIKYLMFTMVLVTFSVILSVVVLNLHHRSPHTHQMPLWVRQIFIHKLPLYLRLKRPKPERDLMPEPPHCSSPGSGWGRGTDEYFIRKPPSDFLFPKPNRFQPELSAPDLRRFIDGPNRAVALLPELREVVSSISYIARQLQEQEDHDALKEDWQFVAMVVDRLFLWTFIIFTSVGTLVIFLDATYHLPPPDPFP
Chain of human alpha1 nicotinic acetylcholine (nACh) receptor (Q07001 22-517): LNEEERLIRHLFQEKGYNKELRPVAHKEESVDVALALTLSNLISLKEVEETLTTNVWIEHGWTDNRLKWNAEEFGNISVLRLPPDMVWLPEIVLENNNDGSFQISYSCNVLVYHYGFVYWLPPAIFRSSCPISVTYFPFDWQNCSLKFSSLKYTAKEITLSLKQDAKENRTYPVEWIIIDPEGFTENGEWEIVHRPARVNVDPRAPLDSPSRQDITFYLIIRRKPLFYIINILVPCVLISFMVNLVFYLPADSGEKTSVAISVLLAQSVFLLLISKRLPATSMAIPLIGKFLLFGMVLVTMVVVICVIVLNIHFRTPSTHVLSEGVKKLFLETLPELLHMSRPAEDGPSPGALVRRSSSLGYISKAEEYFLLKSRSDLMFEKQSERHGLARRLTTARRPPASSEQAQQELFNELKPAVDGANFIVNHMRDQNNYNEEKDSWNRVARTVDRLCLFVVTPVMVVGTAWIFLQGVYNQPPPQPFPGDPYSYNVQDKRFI

Consider `CO[C@@H]1COCC[C@@H]1N[C@@H]1CC[C@](CCC2CCN(C(=O)[C@H]3CC[C@H](NC(=O)CCCO[C@H]4CC[C@H](OCCNC(=O)[C@H]5CC(=O)N(C)[C@@H]5c5cccnc5)CC4)CC3)CC2)(C(=O)N2CCc3ncc(C(F)(F)F)cc3C2)C1` [Example 2, (2S,3S)—N-(2-(((1R,4S)-4-(4-(((1S,4R)-4-(4-(2-((1S,3R)-3-(((3S,4S)-3-Methoxytetrahydro-2H-pyran-4-yl)amino)-1-(3-(trifluoromethyl)-5,6,7,8-tetrahydro-1,6-naphthyridine-6-carbonyl)cyclopentyl)ethyl)piperidine-1-carbonyl)cyclohexyl)amino)-4-oxobutoxy)cyclohexyl)oxy)ethyl)-1-methyl-5-oxo-2-(pyridin-3-yl)pyrrolidine-3-carboxamide], for which, in assay [1], the IC50 was greater than 100000 nM and the Emax at 100 µM is 40%. In addition, the “pKd of Antibody for ARM Compound of Formula (I)” value (“pKd of Antibody” below) in assay [2] is recorded as 9.2. In assay [3], the EC50 is 12.6 nM.

For the compound `CO[C@@H]1COCC[C@@H]1N[C@@H]1CC[C@](CCCNC(=O)[C@H]2CC[C@H](NC(=O)CCCO[C@H]3CC[C@H](OCCNC(=O)[C@H]4CC(=O)N(C)[C@@H]4c4cccnc4)CC3)CC2)(C(=O)N2CCc3ncc(C(F)(F)F)cc3C2)C1` [Example 3, (2S,3S)-N-(2-(((1R,4S)-4-(4-(((1S,4R)-4-((3-((1S,3R)-3-(((3S,4S)-3-Methoxytetrahydro-2H-pyran-4-yl)amino)-1-(3-(trifluoromethyl)-5,6,7,8-tetrahydro-1,6-naphthyridine-6-carbonyl)cyclopentyl)propyl)carbamoyl)cyclohexyl)amino)-4-oxobutoxy)cyclohexyl)oxy)ethyl)-1-methyl-5-oxo-2-(pyridin-3-yl)pyrrolidine-3-carboxamide], in assay [1], the IC50 was greater than 100000 nM and the Emax at 100 µM was 38%. The “pKd of Antibody” value in assay [2] was 9.1. In addition, the EC50 in assay [3] was 0.631 nM.

Turning to `CO[C@@H]1COCC[C@@H]1N[C@@H]1CC[C@](CCCCNC(=O)[C@H]2CC[C@H](NC(=O)CCCO[C@H]3CC[C@H](OCCNC(=O)[C@H]4CC(=O)N(C)[C@@H]4c4cccnc4)CC3)CC2)(C(=O)N2CCc3ncc(C(F)(F)F)cc3C2)C1` [Example 7, (2S,3S)-N-(2-(((1R,4S)-4-(4-(((1S,4R)-4-((4-((1S,3R)-3-(((3S,4S)-3-Methoxytetrahydro-2H-pyran-4-yl)amino)-1-(3-(trifluoromethyl)-5,6,7,8-tetrahydro-1,6-naphthyridine-6-carbonyl)cyclopentyl)butyl)carbamoyl)cyclohexyl)amino)-4-oxobutoxy)cyclohexyl)oxy)ethyl)-1-methyl-5-oxo-2-(pyridin-3-yl)pyrrolidine-3-carboxamide], in assay [1], the IC50 worked out at 94000 nM and the Emax at 100 µM came out at 54%. In assay [2], the “pKd of Antibody” value is 9.2. Further, the EC50 in assay [3] is 2.51 nM.

For the compound `CO[C@@H]1COCC[C@@H]1N[C@@H]1CC[C@](CCNC(=O)[C@H]2CC[C@H](NC(=O)CCCO[C@H]3CC[C@H](OCCNC(=O)[C@H]4CC(=O)N(C)[C@@H]4c4cccnc4)CC3)CC2)(C(=O)N2CCc3ncc(C(F)(F)F)cc3C2)C1` [Example 8, (2S,3S)-N-(2-(((1R,4S)-4-(4-(((1R,4R)-4-((2-((1R,3R)-3-(((3S,4S)-3-Methoxytetrahydro-2H-pyran-4-yl)amino)-1-(3-(trifluoromethyl)-5,6,7,8-tetrahydro-1,6-naphthyridine-6-carbonyl)cyclopentyl)ethyl)carbamoyl)cyclohexyl)amino)-4-oxobutoxy)cyclohexyl)oxy)ethyl)-1-methyl-5-oxo-2-(pyridin-3-yl)pyrrolidine-3-carboxamide], in assay [1], the Emax at 100 µM amounted to 48%. In addition, the “pKd of Antibody” value in assay [2] was found to be 9.1. Further, the EC50 in assay [3] was 1.58 nM.

Take `CO[C@@H]1COCC[C@@H]1N[C@@H]1CC[C@](CCCCCNC(=O)[C@H]2CC[C@H](NC(=O)CCCO[C@H]3CC[C@H](OCCNC(=O)[C@H]4CC(=O)N(C)[C@@H]4c4cccnc4)CC3)CC2)(C(=O)N2CCc3ncc(C(F)(F)F)cc3C2)C1` [Example 9, (2S,3S)-N-(2-(((1R,4S)-4-(4-(((1S,4R)-4-((5-((1S,3R)-3-(((3S,4S)-3-Methoxytetrahydro-2H-pyran-4-yl)amino)-1-(3-(trifluoromethyl)-5,6,7,8-tetrahydro-1,6-naphthyridine-6-carbonyl)cyclopentyl)pentyl)carbamoyl)cyclohexyl)amino)-4-oxobutoxy)cyclohexyl)oxy)ethyl)-1-methyl-5-oxo-2-(pyridin-3-yl)pyrrolidine-3-carboxamide]: in assay [2], the “pKd of Antibody” value is on record as 9.2. Moreover, the EC50 in assay [3] is 1.26 nM.

`CO[C@@H]1COCC[C@@H]1N[C@@H]1CC[C@@](C(=O)N2Cc3cc(C(F)(F)F)cnc3[C@@H](NC(=O)[C@H]3CC[C@H](NC(=O)CCCO[C@H]4CC[C@H](OCCNC(=O)[C@H]5CC(=O)N(C)[C@@H]5c5cccnc5)CC4)CC3)C2)(C(C)C)C1` [Example 15, (2S,3S)-N-(2-(((1R,4S)-4-(4-(((1S,4R)-4-(((S)-6-((1S,3R)-1-isopropyl-3-(((3S,4S)-3-methoxytetrahydro-2H-pyran-4-yl)amino)cyclopentane-1-carbonyl)-3-(trifluoromethyl)-5,6,7,8-tetrahydro-1,6-naphthyridin-8-yl)carbamoyl)cyclohexyl)amino)-4-oxobutoxy)cyclohexyl)oxy)ethyl)-1-methyl-5-oxo-2-(pyridin-3-yl)pyrrolidine-3-carboxamide]: the “pKd of Antibody” value in assay [2] was found to be 9.0. In addition, the EC50 in assay [3] is 0.2 nM.

As to `CO[C@@H]1COCC[C@@H]1N[C@@H]1CC[C@@](C(=O)N2CCc3nc(CCCCOc4cccc(C(=O)NCCOCCOCCOCCOCCOCCOCCOCCOCCOCCNC(=O)[C@H]5CC(=O)N(C)[C@@H]5c5cccnc5)c4)c(C(F)(F)F)cc3C2)(C(C)C)C1` [Example 22, (2S,3S)—N-(1-(3-(4-(6-((1S,3R)-1-Isopropyl-3-(((3S,4S)-3-methoxytetrahydro-2H-pyran-4-yl)amino)cyclopentane-1-carbonyl)-3-(trifluoromethyl)-5,6,7,8-tetrahydro-1,6-naphthyridin-2-yl)butoxy)phenyl)-1-oxo-5,8,11,14,17,20,23,26,29-nonaoxa-2-azahentriacontan-31-yl)-1-methyl-5-oxo-2-(pyridin-3-yl)pyrrolidine-3-carboxamide], the “pKd of Antibody” value in assay [2] was 9.3. For the same compound, the EC50 in assay [3] was 1.58 nM.

What is called IC50 is the concentration that gives 50% inhibition. Low readings indicate inhibition by little substance, high ones a need for much substance.
